Columns and labels:
[1] = biological target: T1, NQO1 (DT-diaphorase, EC 1.6.5.5, human recombinant) (Homo sapiens, UniProt P15559); assay: NQO1 substrate NADPH recycling enzymatic assay; type: biochemical; conditions: for NQO1 activity (enzymatic conversion rate): compound 10 µmol/L, pH 7.4, 25 °C, absorbance at 340 nm
T1 construct: purchased Sigma-Aldrich
Experimental: The interaction between 1,4-quinone moiety of hybrid and NQO1 protein leads to reduction in quinone to hydroquinone and production of reactive oxide form (ROS). According to a literature method, the ability of hybrids 11–14 and streptonigrin (ST) to be a substrate for NQO1 was examined by measuring the oxidation of NADPH to NADP^+ [29, 32].
Compounds 11–14 (10 µmol/L) were tested as NQO1 substrates using the NADPH recycling assay according to the literature method. The recombinant NQO1 (DT-diaphorase, EC 1.6.5.5, human recombinant, Sigma-Aldrich) was used, and the oxidation of NADPH to NADP^+ was measured at the absorption wavelength of 340 nm on the BioTek 800TS microplate reader (BioKom, Janki, Poland). Compounds were dissolved in dimethyl sulfoxide (2 µL) and added to the 96-well plate. The NQO1 protein (1.4 µg/mL) in 50 mmol/L potassium phosphate buffer (pH = 7.4) was added to each well (198 µL) (Nunc Thermo Fisher Scientific, Waltham, MA, USA). Once the 96-well plate was filled with the assay solutions, except the NADPH solution, it was placed into the instrument and left to sit for 5 min before starting the measurements. The enzymatic reaction was initiated by automatically dispensing the NADPH solution into the wells, and data were recorded at 10 s intervals for 5 min at 25 °C. The linear part of the absorbance vs. time graphs (the first 20 s to 1 min) was fitted, and the slopes were calculated. NADPH oxidation rates were compared with reactions lacking the tested compound. Initial velocities were calculated, and data were expressed as µmol NADPH/µmol NQO1/min. All reactions were carried out at least in triplicate.

[2] = test system: Colo-829 cells; assay: Cytotoxic activity, WST-1 assay, melanoma Colo-829; type: cell-based, human; conditions: for SI (IC50 HFF-1/IC50 cancer line) Colo-829: HFF-1 vs Colo-829; for IC50: Homo sapiens, melanoma Colo-829, 72 h, WST-1
Description: (§1) Anticancer activity of compounds 11–14 was designated against following human cancer cell lines: melanoma (Colo-829), ovarian cancer (SK-OV-3), breast cancer (MDA-MB-231, T47D and MCF-7), lung cancer (A549) and normal fibroblasts (HFF-1). As a reference substance, the doxorubicin was used. The results are presented in Table 1 as IC50, where IC50 means the concentration of tested compounds (µM) causing the growth inhibition of 50% for given tumor cells. The negative value (Neg.) means that the IC50 is higher than 30 µM. Selectivity index (SI) as the ratio of the IC50 for normal fibroblast (HFF-1) to IC50 of the corresponding cell line, is presented in Table S2.
(§2) Compounds 7–14 and doxorubicin were tested for cytotoxic activity in vitro against panel of human cancer cell lines: melanoma (Colo-829, ATCC, Rockville, MD, USA), ovarian cancer (SK-OV-3, ATCC, Rockville, MD, USA), breast cancer (T47D, MCF-7, and MDA-MB-231, ATCC, Rockville, MD, USA) and lung cancer (A549, ATCC, Rockville, MD, USA). The cultured cells were kept at 37 °C and 5% CO2. The cells were seeded (5 × 10^4 cells/well/[…] DMEM supplemented with 10% FCS and streptomycin/penicillin) using 96-well plates (Nunc Thermo Fisher Scientific, Waltham, MA, USA). The tested compounds 7–14 with the concentration of 1–100 µg/mL DMSO were inducted with the cancer cells for 72 h. The WST-1-formazan (proliferation reagent WST-1 assay, Roche Diagnostics, Mannheim, Germany) was detected using a microplate reader at 450 nm. Results were expressed as a mean value of at least three independent experiments performed in triplicate.

[3] = test system: SK-OV-3 cells; assay: Cytotoxic activity, WST-1 assay, ovarian cancer SK-OV-3; type: cell-based, human; conditions: for SI (IC50 HFF-1/IC50 cancer line) SK-OV-3: HFF-1 vs SK-OV-3; for IC50: Homo sapiens, ovarian cancer SK-OV-3, 72 h, WST-1
Description: as §1, §2

[4] = test system: MDA-MB-231 cells; assay: Cytotoxic activity, WST-1 assay, breast cancer MDA-MB-231; type: cell-based, human; conditions: for SI (IC50 HFF-1/IC50 cancer line) MDA-MB-231: HFF-1 vs MDA-MB-231; for IC50: Homo sapiens, breast cancer MDA-MB-231, 72 h, WST-1
Description: as §1, §2

[5] = test system: T47D cells; assay: Cytotoxic activity, WST-1 assay, breast cancer T47D; type: cell-based, human; conditions: for SI (IC50 HFF-1/IC50 cancer line) T47D: HFF-1 vs T47D; for IC50: Homo sapiens, breast cancer T47D, 72 h, WST-1
Description: as §1, §2

[6] = test system: MCF-7 cells; assay: Cytotoxic activity, WST-1 assay, breast cancer MCF-7; type: cell-based, human; conditions: for SI (IC50 HFF-1/IC50 cancer line) MCF-7: HFF-1 vs MCF-7; for IC50: Homo sapiens, MCF7, breast cancer MCF-7, 72 h, WST-1
Description: as §1, §2

[7] = test system: A549 cells; assay: Cytotoxic activity, WST-1 assay, lung cancer A549; type: cell-based, human; conditions: for SI (IC50 HFF-1/IC50 cancer line) A549: HFF-1 vs A549; for IC50: Homo sapiens, lung cancer A549, 72 h, WST-1
Description: as §1, §2

[8] = test system: HFF-1 cells; assay: Cytotoxic activity, WST-1 assay, normal fibroblasts HFF-1; type: cell-based; conditions: Homo sapiens, normal fibroblasts HFF-1, 72 h
Description: as §1, §2

T1 sequence (P15559 whole entry): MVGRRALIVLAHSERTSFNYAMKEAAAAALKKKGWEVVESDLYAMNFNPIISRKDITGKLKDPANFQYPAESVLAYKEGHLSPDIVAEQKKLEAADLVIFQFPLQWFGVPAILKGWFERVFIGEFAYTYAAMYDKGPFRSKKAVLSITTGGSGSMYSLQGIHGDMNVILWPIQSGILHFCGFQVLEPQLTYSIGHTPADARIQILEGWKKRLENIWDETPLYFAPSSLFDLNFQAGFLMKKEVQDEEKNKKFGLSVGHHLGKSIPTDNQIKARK

SMILES | NQO1 activity (enzymatic conversion rate) [1] | Enzymatic conversion rate relative to streptonigrin ([1]; fold higher than streptonigrin) | SI (IC50 HFF-1/IC50 cancer line) Colo-829 [2] | IC50 [2] | SI (IC50 HFF-1/IC50 cancer line) SK-OV-3 [3] | IC50 [3] | SI (IC50 HFF-1/IC50 cancer line) MDA-MB-231 [4] | IC50 [4] | SI (IC50 HFF-1/IC50 cancer line) T47D [5] | IC50 [5] | SI (IC50 HFF-1/IC50 cancer line) MCF-7 [6] | IC50 [6] | SI (IC50 HFF-1/IC50 cancer line) A549 [7] | IC50 [7] | IC50 [8] | melting point
O=C1C(Cl)=C(Oc2cccc3cccnc23)C(=O)c2ncccc21 [Compound 11a, 6-chloro-7-(quinolin-8-yloxy)quinoline-5,8-dione] | 1399 ± 26 µmol NADPH/µmol NQO1/min | about 2 times | 0.55 | 18500 ± 1310 nM | 6.59 | 1550 ± 200 nM | 0.89 | 11500 ± 190 nM | 0.55 | 18700 ± 710 nM | 0.53 | 19400 ± 370 nM | 6.08 | 1680 ± 50 nM | 10200 ± 160 nM | 112 to 114 °C
O=C1C(Cl)=C(Oc2cccc3ccc(Cl)nc23)C(=O)c2ccccc21 [Compound 14d, 2-chloro-3-[(2-chloroquinolin-8-yl)oxy]naphthalene-1,4-dione] | 1001 ± 43 µmol NADPH/µmol NQO1/min | – | 0.80 | 18000 ± 2010 nM | 1.01 | 14100 ± 520 nM | 6.99 | 2050 ± 350 nM | – | > 30000 nM | 1.23 | 11700 ± 1340 nM | 1.76 | 8130 ± 1020 nM | 14300 ± 1230 nM | 101 to 103 °C
O=C1C(Cl)=C(Oc2cccc3cccnc23)C(=O)c2cnccc21 [Compound 13a, 6-chloro-7-(quinolin-8-yloxy)isoquinoline-5,8-dione] | 1210 ± 23 µmol NADPH/µmol NQO1/min | – | 162.88 | 170 ± 20 nM | 60.20 | 460 ± 20 nM | 27.15 | 1020 ± 150 nM | 307.67 | 90 ± 40 nM | 23.87 | 1160 ± 150 nM | 923.00 | 30 ± 10 nM | 27700 ± 700 nM | 86 to 88 °C
O=C1C(Cl)=C(Oc2cccc3ccc(Cl)nc23)C(=O)c2ncccc21 [Compound 11d, 6-chloro-7-[(2-chloroquinolin-8-yl)oxy]quinoline-5,8-dione] | 800 ± 64 µmol NADPH/µmol NQO1/min | – | 9.48 | 1450 ± 240 nM | 8.81 | 1560 ± 110 nM | 6.77 | 2030 ± 50 nM | 6.54 | 2100 ± 110 nM | 6.51 | 2110 ± 90 nM | 8.04 | 1710 ± 30 nM | 13700 ± 1270 nM | 123 to 125 °C
O=C1C(Cl)=C(Oc2cccc3cccnc23)C(=O)c2ccccc21 [Compound 14a, 2-chloro-3[(quinolin-8-yl)oxy]naphthalene-1,4-dione] | 1282 ± 29 µmol NADPH/µmol NQO1/min | – | 0.84 | 15300 ± 2560 nM | 7.54 | 1700 ± 290 nM | 0.84 | 15200 ± 850 nM | – | > 30000 nM | 0.91 | 14100 ± 980 nM | 19.71 | 650 ± 70 nM | 12800 ± 850 nM | 115 to 117 °C
O=Cc1ccc2cccc(OC3=C(Cl)C(=O)c4cccnc4C3=O)c2n1 [Compound 11c, 8-[(6-chloro-5,8-dioxo-5,8-dihydroquinolin-7-yl)oxy]quinoline-2-carbaldehyde] | 1100 ± 35 µmol NADPH/µmol NQO1/min | – | 0.90 | 11600 ± 1360 nM | 5.91 | 1780 ± 310 nM | 0.73 | 14400 ± 2010 nM | 0.47 | 22200 ± 660 nM | 0.57 | 18300 ± 1230 nM | 7.26 | 1450 ± 130 nM | 10500 ± 870 nM | 168 to 170 °C
O=Cc1ccc2cccc(OC3=C(Cl)C(=O)c4ccccc4C3=O)c2n1 [Compound 14c, 8-[(3-chloro-1,4-dioxo-1,4-dihydronaphthalen-2-yl)oxy]quinoline-2-carbaldehyde] | 550 ± 62 µmol NADPH/µmol NQO1/min | – | – | > 30000 nM | 71.84 | 250 ± 60 nM | 0.71 | 25100 ± 970 nM | 11.09 | 1620 ± 210 nM | – | > 30000 nM | 43.80 | 410 ± 60 nM | 18000 ± 1750 nM | 131 to 133 °C
O=Cc1ccc2cccc(OC3=C(Cl)C(=O)c4ccncc4C3=O)c2n1 [Compound 13c, 8-[(6-chloro-5,8-dioxo-5,8-dihydroisoquinolin-7-yl)oxy]quinoline-2-carbaldehyde] | 318 ± 19 µmol NADPH/µmol NQO1/min | – | 38.97 | 340 ± 280 nM | 41.41 | 320 ± 10 nM | 17.67 | 750 ± 90 nM | 25.48 | 520 ± 80 nM | 14.89 | 890 ± 30 nM | 10.04 | 1320 ± 320 nM | 13200 ± 850 nM | 166 to 168 °C
O=C1C(Cl)=C(Oc2cccc3ccc(Cl)nc23)C(=O)c2cnccc21 [Compound 13d, 6-chloro-7-[(2-chloroquinolin-8-yl)oxy]isoquinoline-5,8-dione] | 633 ± 32 µmol NADPH/µmol NQO1/min | – | 5.66 | 1960 ± 80 nM | 0.65 | 17100 ± 1760 nM | 6.64 | 1670 ± 110 nM | – | > 30000 nM | 6.34 | 1750 ± 190 nM | 184.83 | 60 ± 10 nM | 11100 ± 1070 nM | 127 to 129 °C
